{
  "source": "patent US11819476B2",
  "about": "“Rapamycin analogs and uses thereof” (Janssen Pharmaceutica NV, priority 2019, dated 2023)",
  "key": {"[1]": {"tested_on": "pS6K1 T389 in PC3 cells (mTORC1 pathway)", "assay": "Western blot based pS6K1 assay (mTORC1 pathway)", "format": "cell-based", "details": "24 hours", "description": "Example 76: Western Blot Based pS6K1 and pAKT Assay at 24 and 48 Hour Timepoints\nAssay Protocol: • 1. Seed six well plate with 500,000 PC3 cells per well and incubate for […]. • 2. Add compounds into the cell plate. Incubate for 24 to 48 hours. • 4. Plate is placed on ice and the media is removed via aspiration. The wells are washed with 1 mL of 1×PBS and then fully aspirated. • 5. 110 μL of 1% Triton Lysis Buffer is added and each well is scraped vigorously. • 6. Cell homogenates are transferred to 1.5 mL eppendorf tubes on ice and spun down at 4° C. for 10 minutes at 10,000 rpm. • 7. Protein concentration of resulting cell lysates were quantified utilizing a Bradford assay and the samples run analyzed via Western blot on 4-12% Bis/Tris gels with 1×MES buffer. • 8. The gels were transferred onto membranes at 50V for 100 minutes, blocked with Odyssey Blocking buffer for 30 minutes then incubated overnight with primary antibody (pS6K1 T389 Rabbit or pAkt S473 Rabbit) overnight at 4° C. on a rotator. • 9. The membranes were washed 3× with TBS-T with a 5 minute incubation between each wash then incubated with secondary antibody (LiCor IRDye 800 Donkey Anti Rabbit) for at least 30 minutes. • 10. The membranes were washed 3× with TBS-T with a 5 minute incubation between each wash. • 11. The gels were then incubated for 5 minutes with PBS at room temperature then imaged using a Li-Cor.\nPC3 cells were treated with everolimus (0.1 μM, 0.01 μM, and 0.001 μM) or I-9 ([…], 0.1 μM, 0.01 μM, and 0.001 μM) for 24 hours.\nThe methods employed were substantially similar to those described above. Compounds were evaluated in PC3 cells. Additional cell lines that may be used include Jurkat cells, wild-type mouse embryotic fibroblast (MEF) cells, tuberous sclerosis 2 (TSC2) negative (TSC−/−) MEF cells, and tuberous sclerosis 2 (TSC2) positive (TSC+/+) MEF cells. Cells are incubated with compounds of the present invention for various time periods (e.g., 5 minutes, 15 minutes, 30 minutes, 90 minutes, 24 hours, or 48 hours), and evaluated according to known methodologies, such as those herein described."}, "[2]": {"tested_on": "pS6K1 in MCF7", "assay": "AlphaLISA Ultra pS6K1 Assay", "format": "cell-based", "details": "Homo sapiens, 1.5 h; MCF7 cells, 90 min incubation", "description": "Example 74: AlphaLISA Ultra pS6K1 Assay\nAssay Protocol: • 1. Seed MCF-7 cells in Corning 3701 plate and incubate for 20˜24 hour. 12,000˜16,000 cells will be seeded in 36 μL medium per well. • 2. Change the culture medium with fresh medium and incubate for another 2 hours. • 3. Add 12 μL (4×) compounds into the cell plate by HAMILTON. Final DMSO concentration is 0.5%. Incubate for 90 minutes. • 4. Aspirate 38 μL by HAMILTON, 10 μL rest per well. • 5. Add 10 μL 2× lysis buffer using HAMILTON; total volume in wells is 20 μL. Allow cells to shake for 30 min. Cover plate by plastic foil and store plate at −80° C. up to analysis. • 6. Thaw cell lysate at RT and transfer 10 μL lysate to assay plate (Optiplate-384). • 7. Add 5 μL acceptor beads into assay plate and incubation for 2 hours • 8. Add 5 μL donor beads and incubation for 2 hours • 9. Count the plate by EnSpire Multimode Plate Reader"}},
  "data": [
    {"molecule": "CO[C@@H]1C[C@H](C[C@@H](C)[C@@H]2CC(=O)[C@H](C)/C=C(\\C)[C@@H](O)[C@@H](OC)C(=O)[C@H](C)C[C@H](C)/C=C/C=C/C=C(\\C)[C@@H](OCCC3CCNC3=O)C[C@@H]3CC[C@@H](C)[C@@](O)(O3)C(=O)C(=O)N3CCCC[C@H]3C(=O)O2)CC[C@H]1OCCO", "note": "(stereo partly drawn) [Example I-3, (23E,25E,27E,28E,34R,35S,36R,37R,39S,42S,44S,45S,46R,47R,57R)-46,57-dihydroxy-45-[(1R)-2-[(1S,3R,4R)-4-(2-hydroxyethoxy)-3-methoxy-cyclohexyl]-1-methyl-ethyl]-47-methoxy-34,35,36,37,48,49-hexamethyl-44-[2-(2-oxopyrrolidin-3-yl)ethoxy]-69,70-dioxa-59-azatricyclohexatriaconta-23,25,27(48),28(49)-tetraene-50,51,53,54,55-pentone]", "values": [
      {"measurement": "inhibition of the mTORC1 pathway (pS6K1, Western blot)", "setting": "[1]", "result": "strong inhibition"}
    ]},
    {"molecule": "CO[C@@H]1C[C@H](C[C@@H](C)[C@@H]2CC(=O)[C@H](C)/C=C(\\C)[C@@H](O)[C@@H](OC)C(=O)[C@H](C)C[C@H](C)/C=C/C=C/C=C(\\C)[C@@H](OCCCC3CCNC3=O)C[C@@H]3CC[C@@H](C)[C@@](O)(O3)C(=O)C(=O)N3CCCC[C@H]3C(=O)O2)CC[C@H]1OCCO", "note": "(stereo partly drawn) [Example I-15, (23E,25E,27E,28E,35R,36S,37R,38R,40S,43S,45S,46S,47R,48R,58R)-47,58-dihydroxy-46-[(1R)-2-[(1S,3R,4R)-4-(2-hydroxyethoxy)-3-methoxy-cyclohexyl]-1-methyl-ethyl]-48-methoxy-35,36,37,38,49,50-hexamethyl-45-[3-(2-oxopyrrolidin-3-yl)propoxy]-70,71-dioxa-60-azatricyclohexatriaconta-23,25,27(49),28(50)-tetraene-51,52,54,55,56-pentone]", "values": [
      {"measurement": "inhibition of the mTORC1 pathway (pS6K1, Western blot)", "setting": "[1]", "result": "strong inhibition"}
    ]},
    {"molecule": "CO[C@@H]1C[C@H](C[C@@H](C)[C@@H]2CC(=O)[C@H](C)/C=C(\\C)[C@@H](O)[C@@H](OC)C(=O)[C@H](C)C[C@H](C)/C=C/C=C/C=C(\\C)C(OCCCC(=O)O)C[C@@H]3CC[C@@H](C)[C@@](O)(O3)C(=O)C(=O)N3CCCC[C@H]3C(=O)O2)CC[C@H]1OCCO", "note": "(stereo partly drawn) [Example I-30, 4-[[(21E,23E,25E,26E,33R,34S,35R,36R,38S,40S,43S,44R,45R,55R)-44,55-dihydroxy-43-[(1R)-2-[(1S,3R,4R)-4-(2-hydroxyethoxy)-3-methoxy-cyclohexyl]-1-methyl-ethyl]-45-methoxy-33,34,35,36,46,47-hexamethyl-48,49,50,51,52-pentaoxo-67,68-dioxa-56-azatricyclohexatriaconta-21,23,25(46),26(47)-tetraen-42-yl]oxy]butanoic acid]", "values": [
      {"measurement": "IC50", "setting": "[2]", "result": "≥ 100", "unit": "nM"}
    ]},
    {"molecule": "COCCSC1C[C@@H]2CC[C@@H](C)[C@@](O)(O2)C(=O)C(=O)N2CCCC[C@H]2C(=O)O[C@H]([C@H](C)C[C@@H]2CC[C@@H](O)[C@H](OC)C2)CC(=O)[C@H](C)/C=C(\\C)[C@@H](O)[C@@H](OC)C(=O)[C@H](C)C[C@H](C)/C=C/C=C/C=C/1C", "note": "(stereo partly drawn) [Example I-31, (22E,24E,26E,27E,33R,34S,35R,36R,38S,40S,43S,44S,45R,54R)-44,54-dihydroxy-43-[(1R)-2-[(1S,3R,4R)-4-hydroxy-3-methoxy-cyclohexyl]-1-methyl-ethyl]-45-methoxy-42-[2-(2-methoxyethoxy)ethylsulfanyl]-33,34,35,36,46,47-hexamethyl-64,65-dioxa-55-azatricyclohexatriaconta-22,24,26(46),27(47)-tetraene-48,49,50,51,52-pentone]", "values": [
      {"measurement": "IC50", "setting": "[2]", "result": "1 to 10", "unit": "nM"}
    ]},
    {"molecule": "CO[C@@H]1C[C@H](C[C@@H](C)[C@@H]2CC(=O)[C@H](C)/C=C(\\C)[C@@H](O)[C@@H](OC)C(=O)[C@H](C)C[C@H](C)/C=C/C=C/C=C(\\C)C(NC(=O)OCCOCCO)C[C@@H]3CC[C@@H](C)[C@@](O)(O3)C(=O)C(=O)N3CCCC[C@H]3C(=O)O2)CC[C@H]1O", "note": "(stereo partly drawn) [Example I-32, 2-(2-hydroxyethoxy)ethyl N-[(21E,23E,25E,26E,32R,33S,34R,35R,37S,39S,42S,43R,44R,54R)-43,54-dihydroxy-42-[(1R)-2-[(1S,3R,4R)-4-hydroxy-3-methoxy-cyclohexyl]-1-methyl-ethyl]-44-methoxy-32,33,34,35,45,46-hexamethyl-47,48,49,50,51-pentaoxo-67,68-dioxa-56-azatricyclohexatriaconta-21,23,25(45),26(46)-tetraen-41-yl]carbamate]", "values": [
      {"measurement": "IC50", "setting": "[2]", "result": "1 to 10", "unit": "nM"}
    ]},
    {"molecule": "CO[C@@H]1C[C@H](C[C@@H](C)[C@@H]2CC(=O)[C@H](C)/C=C(\\C)[C@@H](O)[C@@H](OC)C(=O)[C@H](C)C[C@H](C)/C=C/C=C/C=C(\\C)C(OCCCCCO)C[C@@H]3CC[C@@H](C)[C@@](O)(O3)C(=O)C(=O)N3CCCC[C@H]3C(=O)O2)CC[C@H]1O", "note": "(stereo partly drawn) [Example I-34, (21E,23E,25E,26E,33R,34S,35R,36R,38S,40S,43S,44R,45R,54R)-44,54-dihydroxy-43-[(1R)-2-[(1S,3R,4R)-4-hydroxy-3-methoxy-cyclohexyl]-1-methyl-ethyl]-42-(5-hydroxypentoxy)-45-methoxy-33,34,35,36,46,47-hexamethyl-65,66-dioxa-55-azatricyclohexatriaconta-21,23,25(46),26(47)-tetraene-48,49,50,51,52-pentone]", "values": [
      {"measurement": "IC50", "setting": "[2]", "result": "0.1 to 1", "unit": "nM"}
    ]},
    {"molecule": "COc1ccc([C@@H]2C[C@@H]3CC[C@@H](C)[C@@](O)(O3)C(=O)C(=O)N3CCCC[C@H]3C(=O)O[C@H]([C@H](C)C[C@@H]3CC[C@@H](O)[C@H](OC)C3)CC(=O)[C@H](C)/C=C(\\C)[C@H](O)[C@@H](OC)C(=O)[C@H](C)C[C@H](C)/C=C/C=C/C=C/2C)c(OC)c1", "note": "[Example I-37, (26E,28E,30E,31E,36R,37S,38R,39R,41S,43S,44R,46S,47R,48R,57R)-44-(2,4-dimethoxyphenyl)-47,57-dihydroxy-46-[(1R)-2-[(1S,3R,4R)-4-hydroxy-3-methoxy-cyclohexyl]-1-methyl-ethyl]-48-methoxy-36,37,38,39,49,50-hexamethyl-67,68-dioxa-58-azatricyclohexatriaconta-26,28,30(49),31(50)-tetraene-51,52,53,54,55-pentone]", "values": [
      {"measurement": "IC50", "setting": "[2]", "result": "≥ 100", "unit": "nM"}
    ]},
    {"molecule": "COc1ccc([C@H]2C[C@@H]3CC[C@@H](C)[C@@](O)(O3)C(=O)C(=O)N3CCCC[C@H]3C(=O)O[C@H]([C@H](C)C[C@@H]3CC[C@@H](O)[C@H](OC)C3)CC(=O)[C@H](C)/C=C(\\C)[C@H](O)[C@@H](OC)C(=O)[C@H](C)C[C@H](C)/C=C/C=C/C=C/2C)c(OC)c1", "note": "[Example I-38, (26E,28E,30E,31E,36R,37S,38R,39R,41S,43S,44S,46S,47R,48R,57R)-44-(2,4-dimethoxyphenyl)-47,57-dihydroxy-46-[(1R)-2-[(1S,3R,4R)-4-hydroxy-3-methoxy-cyclohexyl]-1-methyl-ethyl]-48-methoxy-36,37,38,39,49,50-hexamethyl-67,68-dioxa-58-azatricyclohexatriaconta-26,28,30(49),31(50)-tetraene-51,52,53,54,55-pentone]", "values": [
      {"measurement": "IC50", "setting": "[2]", "result": "10 to 100", "unit": "nM"}
    ]},
    {"molecule": "CO[C@@H]1C[C@H](C[C@@H](C)[C@@H]2CC(=O)[C@H](C)/C=C(\\C)[C@@H](O)[C@@H](OC)C(=O)[C@H](C)C[C@H](C)/C=C/C=C/C=C(\\C)[C@@H](OCCCCC(N)=O)C[C@@H]3CC[C@@H](C)[C@@](O)(O3)C(=O)C(=O)N3CCCC[C@H]3C(=O)O2)CC[C@H]1OCCO", "note": "[Example I-48]", "values": [
      {"measurement": "inhibition of the mTORC1 pathway (pS6K1, Western blot)", "setting": "[1]", "result": "strong inhibition"}
    ]}
  ]
}
